Results taken from US9150566B2, “2-(1,2,3-triazol-2-yl)benzamide and 3-(1,2,3-triazol-2-YL)picolinamide derivatives as orexin receptor antagonists” (ACTELION PHARMACEUTICALS LTD., priority 2011, dated 2015).
pIC50: −log10 of the molar value. Like-named read-outs stand apart in the source and are kept apart here.

What was measured:
[1] = Measurement of brain and systemic concentration after oral administration; type: in vivo; settings: rat, brain, male wistar rats, oral 100 mg/kg, read-out: brain concentration [B]; for concentration at 1 h: formulated in 10% PEG400/90% MC0.5%, sampled at 1 h; for concentration at 3 h: formulated in 100% PEG400, sampled at 3 h
Experimental: Measurement of Brain and Systemic Concentration after Oral Administration:
In order to assess brain penetration, the concentration of the compound is measured in plasma ([P]), and brain ([B]), sampled 1 h or 3 h (or at different time points) following oral administration (100 mg/kg) to male wistar rats (n=3). The compounds are formulated either in 100% PEG 400 or 10% PEG400/90% MC0.5%. Samples are collected in the same animal at the same time point (+/−5 min). Blood is sampled from the vena cava caudalis into containers with EDTA as anticoagulant and centrifuged to yield plasma. Brain is sampled after cardiac perfusion of 10 mL NaCl 0.9% and homogenized into one volume of cold phosphate buffer (pH 7.4). All samples are extracted with MeOH and analyzed by LC-MS/MS. Concentrations are determined with the help of calibration curves. Inter-individual variations between the three rats were limited. Particular compounds of the present invention tested as described above gave brain concentrations ([B]) as shown in Table 16 below; wherein the compounds of Examples 11-37 and 94 were formulated in 100% PEG400 and sampled at 3 h. All other examples below were formulated in 10% PEG400/90% MC0.5% and sampled at 1 h.

CYP3A4 = CYP3A4 (Homo sapiens (Human), UniProt P08684); experiment: CYP3A4 inhibition assay (human liver microsomes, testosterone 6β-hydroxylation); settings: read-out: CYP3A4 IC50, 40 μM testosterone
Experimental: The CYP3A4 inhibition assay was performed using human liver microsomes and testosterone 6β-hydroxylation as a P450 isoform-specific marker. In a total volume of 150 μL, ^14C-testosterone at a final concentration of 40 μM in a 100 mM phosphate buffer (pH 7.4) was incubated in a 96-well plate with 0.3 mg/mL of human liver microsomes in an Eppendorf thermomixer at 37° C. and 400 rpm. […] The reaction was initiated by addition of 15 μL of the NADPH-regenerating system containing the glucose-6-phosphate dehydrogenase and terminated after 7 min with a 75 μL-aliquot of methanol. After centrifugation at 465 g and 4° C. for 20 min, a 50 μL-aliquot of the supernatant was submitted to HPLC according to the method described below. The total concentration of DMSO in the assay including controls without inhibitor was 1%.
Nicardipine was run in parallel as a reference inhibitor of CYP3A4 activity at final concentrations of 0, 0.1, 0.5, 1.0, 5.0, 10, 25, and 50 μM. Stock solutions thereof were prepared in DMSO.
The chromatographic separation of testosterone and 6β-hydroxytestosterone was achieved on a Phenomenex Luna C18(2) column (5 μm, 2.0×10 mm) at RT with a flow rate of 0.6 mL/min. Mobile phases consisted of 1% aqueous formic acid (phase A) and methanol (phase B) using a gradient method with 0.9 min total run time.
The quantification of 6β-hydroxytestosterone was carried out using a quadrupole mass spectrometer equipped with an ionspray interface operating in positive ion mode. The parameters of the mass detector were set as follows: capillary voltage 5 kV, auxiliary gas 40 psi, collision gas 3 mTorr, and transfer capillary temperature 420° C.

human orexin-2 receptor = human orexin-2 receptor (Homo sapiens (Human), UniProt O43614); experiment: In vitro intracellular calcium measurements (FLIPR), antagonistic activity on orexin-2 receptor; type: cell-based; settings: read-out: IC50 OX2
Method in brief: (§1)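 CHO cells expressing human orexin-1 or orexin-2 receptor were seeded overnight, preincubated with antagonist for 120 min, then stimulated with agonist in a FLIPR Tetra.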

human orexin-1 receptor = human orexin-1 receptor (Homo sapiens (Human), UniProt O43613); experiment: In vitro intracellular calcium measurements (FLIPR), antagonistic activity on orexin-1 receptor; type: cell-based
Method in brief: as §1

[2] = CHO cells expressing human orexin-2 receptor, FLIPR, 3 nM orexin-A agonist, 120 min antagonist incubation, geometric mean if determined several times
[3] = CHO cells expressing human orexin-1 receptor, FLIPR, 3 nM orexin-A agonist, 120 min antagonist incubation, geometric mean if determined several times, read-out: IC50 OX1

Sequence of human orexin-2 receptor (O43614 whole entry): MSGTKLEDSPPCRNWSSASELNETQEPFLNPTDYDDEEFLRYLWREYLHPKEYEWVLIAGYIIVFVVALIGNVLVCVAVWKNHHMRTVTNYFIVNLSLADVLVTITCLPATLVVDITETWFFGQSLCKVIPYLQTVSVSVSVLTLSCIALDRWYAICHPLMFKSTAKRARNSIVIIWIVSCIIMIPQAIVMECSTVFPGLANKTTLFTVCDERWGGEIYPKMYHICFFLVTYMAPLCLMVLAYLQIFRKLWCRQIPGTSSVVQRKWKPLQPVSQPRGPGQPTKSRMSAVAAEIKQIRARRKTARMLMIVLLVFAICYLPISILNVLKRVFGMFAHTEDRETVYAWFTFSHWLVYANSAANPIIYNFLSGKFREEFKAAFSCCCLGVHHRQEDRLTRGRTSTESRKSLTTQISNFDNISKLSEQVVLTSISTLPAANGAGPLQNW
Sequence of human orexin-1 receptor (O43613 whole entry): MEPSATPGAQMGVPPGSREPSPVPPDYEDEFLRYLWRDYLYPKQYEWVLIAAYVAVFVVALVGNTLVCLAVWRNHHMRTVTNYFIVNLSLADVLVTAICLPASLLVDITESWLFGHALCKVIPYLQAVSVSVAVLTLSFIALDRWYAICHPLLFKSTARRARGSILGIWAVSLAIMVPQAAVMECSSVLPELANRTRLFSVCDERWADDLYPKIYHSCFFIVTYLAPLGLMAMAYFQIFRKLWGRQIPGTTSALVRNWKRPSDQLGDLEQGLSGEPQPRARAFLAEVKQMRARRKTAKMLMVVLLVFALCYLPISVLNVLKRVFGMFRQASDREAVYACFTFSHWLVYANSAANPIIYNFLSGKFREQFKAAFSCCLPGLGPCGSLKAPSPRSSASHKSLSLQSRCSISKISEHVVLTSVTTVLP
Sequence of CYP3A4 (P08684 whole entry): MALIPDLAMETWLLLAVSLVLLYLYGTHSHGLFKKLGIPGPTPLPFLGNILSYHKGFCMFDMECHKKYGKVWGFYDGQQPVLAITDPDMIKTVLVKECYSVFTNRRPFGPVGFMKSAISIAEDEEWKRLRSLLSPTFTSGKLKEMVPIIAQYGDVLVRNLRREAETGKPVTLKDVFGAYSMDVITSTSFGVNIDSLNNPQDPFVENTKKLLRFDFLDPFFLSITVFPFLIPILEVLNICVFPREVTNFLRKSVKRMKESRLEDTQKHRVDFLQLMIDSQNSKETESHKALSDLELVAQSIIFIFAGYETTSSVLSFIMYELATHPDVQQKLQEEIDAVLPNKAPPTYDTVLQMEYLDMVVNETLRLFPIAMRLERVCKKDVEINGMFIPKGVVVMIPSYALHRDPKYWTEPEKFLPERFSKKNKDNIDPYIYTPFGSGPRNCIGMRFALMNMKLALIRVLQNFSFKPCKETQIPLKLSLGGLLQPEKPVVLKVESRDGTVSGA

Structure (SMILES)	concentration at 1 h [1] [ng/g]	pIC50 (CYP3A4)	pIC50 (human orexin-2 receptor; [2])	concentration at 3 h [1] [ng/g]	pIC50 (human orexin-2 receptor)	pIC50 (human orexin-1 receptor; read-out: IC50 OX1)	pIC50 (human orexin-1 receptor; [3])	pIC50 (human orexin-1 receptor)
O=C(c1ccc(C(F)(F)F)cc1-n1nccn1)N1CCOC[C@H]1Cc1cccc(-c2ncon2)c1 [Example 87, [(R)-3-(3-[1,2,4]Oxadiazol-3-yl-benzyl)-morpholin-4-yl]-(2-[1,2,3]triazol-2-yl-4-trifluoromethyl-phenyl)-methanone]	1880	4.82	6.64					
Cc1ccc(-n2nccn2)c(C(=O)N2CCOC[C@H]2Cc2cccc(-n3nccn3)c2)c1 [Example 11, (5-Methyl-2-[1,2,3]triazol-2-yl-phenyl)-[(R)-3-(3-[1,2,3]triazol-2-yl-benzyl)-morpholin-4-yl]-methanone]				46	6.71	8.70		
Cc1ccc(C(=O)N2CCOC[C@H]2Cc2cccc(-n3nccn3)c2)c(-n2nccn2)c1C [Example 92, (3,4-Dimethyl-2-[1,2,3]triazol-2-yl-phenyl)-[(R)-3-(3-[1,2,3]triazol-2-yl-benzyl)-morpholin-4-yl]-methanone]	1970	4.36			5.58	8.52		
Cc1ccc(C(=O)N2CCOC[C@H]2Cc2cc(-n3nccn3)ccc2F)c(-n2nccn2)c1 [Example 62, [(R)-3-(2-Fluoro-5-[1,2,3]triazol-2-yl-benzyl)-morpholin-4-yl]-(4-methyl-2-[1,2,3]triazol-2-yl-phenyl)-methanone]	4420	4.54	6.39					
O=C(c1ccc(Cl)cc1-n1nccn1)N1CCOC[C@H]1Cc1cccc(-n2nccn2)c1 [Example 77, (4-Chloro-2-[1,2,3]triazol-2-yl-phenyl)-[(R)-3-(3-[1,2,3]triazol-2-yl-benzyl)-morpholin-4-yl]-methanone]	1610	4.80	7.02				9.00	
C[C@@H]1CN(C(=O)c2ccccc2-n2nccn2)[C@H](Cc2cccc(-n3nccn3)c2)CO1 [Example 100, [(2R,5R)-2-Methyl-5-(3-[1,2,3]triazol-2-yl-benzyl)-morpholin-4-yl]-(2-[1,2,3]triazol-2-yl-phenyl)-methanone]	529	4.89	6.54				8.22	
O=C(c1ccc(C(F)(F)F)cc1-n1nccn1)N1CCOC[C@H]1Cc1cccc(-n2nccn2)c1 [Example 76, [(R)-3-(3-[1,2,3]Triazol-2-yl-benzyl)-morpholin-4-yl]-(2-[1,2,3]triazol-2-yl-4-trifluoromethyl-phenyl)-methanone]	1380	5.12	6.88				8.70	
Cc1cccc(C(=O)N2CCOC[C@H]2Cc2cccc(-n3nccn3)c2)c1-n1nccn1 [Example 64, (3-Methyl-2-[1,2,3]triazol-2-yl-phenyl)-[(R)-3-(3-[1,2,3]triazol-2-yl-benzyl)-morpholin-4-yl]-methanone]	2370	4.48	6.11					8.22
O=C(c1cc(Cl)ccc1-n1nccn1)N1CCOC[C@H]1Cc1cccc(-n2nccn2)c1 [Example 30, (5-Chloro-2-[1,2,3]triazol-2-yl-phenyl)-[(R)-3-(3-[1,2,3]triazol-2-yl-benzyl)-morpholin-4-yl]-methanone]		4.77	6.70	1870			8.40	
Cc1ccc(C(=O)N2CCOC[C@H]2Cc2cccc(-n3nccn3)c2)c(-n2nccn2)c1 [Example 27, (4-Methyl-2-[1,2,3]triazol-2-yl-phenyl)-[(R)-3-(3-[1,2,3]triazol-2-yl-benzyl)-morpholin-4-yl]-methanone]		4.51		5500	6.56	8.70		
O=C(c1ccc(Cl)cc1-n1nccn1)N1CCOC[C@H]1Cc1cc(-n2nccn2)ccc1F [Example 130, (4-Chloro-2-[1,2,3]triazol-2-yl-phenyl)-[(R)-3-(2-fluoro-5-[1,2,3]triazol-2-yl-benzyl)-morpholin-4-yl]-methanone]	5830	4.70	6.72				8.52	
Cc1ccc(C(=O)N2CCOC[C@H]2Cc2cc(-c3ncccn3)ccc2F)c(-n2nccn2)c1 [Example 156, [(R)-3-(2-Fluoro-5-pyrimidin-2-yl-benzyl)-morpholin-4-yl]-(4-methyl-2-[1,2,3]triazol-2-yl-phenyl)-methanone]	613	< 4.30	6.24					
O=C(c1ccccc1-n1nccn1)N1CCOC[C@H]1Cc1cccc(-n2cccn2)c1 [Example 16, [(R)-3-(3-Pyrazol-1-yl-benzyl)-morpholin-4-yl]-(2-[1,2,3]triazol-2-yl-phenyl)-methanone]		4.37	5.74	160			7.52	
Cc1cc(C(=O)N2CCOC[C@H]2Cc2cccc(-n3nccn3)c2)c(-n2nccn2)cc1C [Example 35, (4,5-Dimethyl-2-[1,2,3]triazol-2-yl-phenyl)-[(R)-3-(3-[1,2,3]triazol-2-yl-benzyl)-morpholin-4-yl]-methanone]		4.70	7.60	59			9.00	
Cc1ccc(C(=O)N2CCOC[C@H]2Cc2cc(-n3nccn3)ccc2F)c(-n2nccn2)c1C [Example 94, (3,4-Dimethyl-2-[1,2,3]triazol-2-yl-phenyl)-[(R)-3-(2-fluoro-5-[1,2,3]triazol-2-yl-benzyl)-morpholin-4-yl]-methanone]		4.52	5.45	654			8.22	
Cc1ccc(C(=O)N2CCOC[C@H]2Cc2cc(-n3nccn3)ccc2Cl)c(-n2nccn2)c1 [Example 120, [(R)-3-(2-Chloro-5-[1,2,3]triazol-2-yl-benzyl)-morpholin-4-yl]-(4-methyl-2-[1,2,3]triazol-2-yl-phenyl)-methanone]	5130	4.72			6.27	8.52		
O=C(c1ccccc1-n1nccn1)N1CCOC[C@H]1Cc1cccc(-n2nccn2)c1 [Example 12, [(R)-3-(3-[1,2,3]Triazol-2-yl-benzyl)-morpholin-4-yl]-(2-[1,2,3]triazol-2-yl-phenyl)-methanone]		4.52	5.91	11900			7.77	
Cc1ccc(C(=O)N2CCOC[C@H]2Cc2cccc(-c3ncon3)c2)c(-n2nccn2)c1 [Example 81, (4-Methyl-2-[1,2,3]triazol-2-yl-phenyl)-[(R)-3-(3-[1,2,4]oxadiazol-3-yl-benzyl)-morpholin-4-yl]-methanone]		4.48	6.67				8.70	
Cc1ccc(-n2nccn2)c(C(=O)N2CCOC[C@H]2Cc2ccc(C)c(-n3nccn3)c2)c1 [Example 65, [(R)-3-(4-Methyl-3-[1,2,3]triazol-2-yl-benzyl)-morpholin-4-yl]-(5-methyl-2-[1,2,3]triazol-2-yl-phenyl)-methanone]		4.66	6.58				8.70	
O=C(c1cccc(Cl)c1-n1nccn1)N1CCOC[C@H]1Cc1cc(-n2nccn2)ccc1F [Example 135, (3-Chloro-2-[1,2,3]triazol-2-yl-phenyl)-[(R)-3-(2-fluoro-5-[1,2,3]triazol-2-yl-benzyl)-morpholin-4-yl]-methanone]		4.52	5.73				7.80	
